These results are taken from ChEMBL document CHEMBL1158447, “Substituted benzimidazoles: A novel chemotype for small molecule hKSP inhibitors” (Bioorg Med Chem Lett, 2009).

pIC50: −log10 of the molar value. Activity calls are given as the source filed them. The calls are words filed in the database; no cut-off is given here.

One series deals with Rattus norvegicus. Briefly: AUC in rat at 10 mg/kg after 6 hrs. Also noted: time < 6 hr, dose 10 mg/kg. As to conditions: in vivo. Type of series: ADME, organism-based, Plasma.
The target of series [1] is T1, Cytochrome P450 2D6 (Homo sapiens, UniProt P10635). Briefly: Inhibition of CYP2D6 coincubated with compound. In kind it is ADME.
T1 sequence (P10635 whole entry): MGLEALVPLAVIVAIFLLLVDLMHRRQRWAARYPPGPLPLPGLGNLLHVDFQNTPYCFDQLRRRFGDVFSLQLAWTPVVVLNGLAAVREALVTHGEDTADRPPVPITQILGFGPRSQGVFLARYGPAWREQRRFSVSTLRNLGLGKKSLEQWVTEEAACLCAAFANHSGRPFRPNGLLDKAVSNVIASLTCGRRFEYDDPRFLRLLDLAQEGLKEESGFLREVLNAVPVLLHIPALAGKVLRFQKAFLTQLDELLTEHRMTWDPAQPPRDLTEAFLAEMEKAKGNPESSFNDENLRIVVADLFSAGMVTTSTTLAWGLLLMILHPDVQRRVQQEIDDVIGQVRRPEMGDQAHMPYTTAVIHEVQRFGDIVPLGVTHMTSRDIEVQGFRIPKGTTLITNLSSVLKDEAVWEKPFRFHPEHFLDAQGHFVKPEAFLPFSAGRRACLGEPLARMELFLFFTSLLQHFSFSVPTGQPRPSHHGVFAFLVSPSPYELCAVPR
The nature of series [2]: Permeability across human Caco-2 cell membrane. As to conditions: read-out: permeability. In kind it is ADME, cell-based. (In general: Caco-2 monolayers are a common model of the intestinal barrier.)
Series [3] has as its target T2, Cytochrome P450 2C9 (Homo sapiens, UniProt P11712). Briefly: Inhibition of CYP2C9 coincubated with compound. Type of series: ADME.
The target of series [4] is T3, Kinesin heavy chain isoform 5A (Homo sapiens, UniProt Q12840).
T3 sequence (Q12840 whole entry): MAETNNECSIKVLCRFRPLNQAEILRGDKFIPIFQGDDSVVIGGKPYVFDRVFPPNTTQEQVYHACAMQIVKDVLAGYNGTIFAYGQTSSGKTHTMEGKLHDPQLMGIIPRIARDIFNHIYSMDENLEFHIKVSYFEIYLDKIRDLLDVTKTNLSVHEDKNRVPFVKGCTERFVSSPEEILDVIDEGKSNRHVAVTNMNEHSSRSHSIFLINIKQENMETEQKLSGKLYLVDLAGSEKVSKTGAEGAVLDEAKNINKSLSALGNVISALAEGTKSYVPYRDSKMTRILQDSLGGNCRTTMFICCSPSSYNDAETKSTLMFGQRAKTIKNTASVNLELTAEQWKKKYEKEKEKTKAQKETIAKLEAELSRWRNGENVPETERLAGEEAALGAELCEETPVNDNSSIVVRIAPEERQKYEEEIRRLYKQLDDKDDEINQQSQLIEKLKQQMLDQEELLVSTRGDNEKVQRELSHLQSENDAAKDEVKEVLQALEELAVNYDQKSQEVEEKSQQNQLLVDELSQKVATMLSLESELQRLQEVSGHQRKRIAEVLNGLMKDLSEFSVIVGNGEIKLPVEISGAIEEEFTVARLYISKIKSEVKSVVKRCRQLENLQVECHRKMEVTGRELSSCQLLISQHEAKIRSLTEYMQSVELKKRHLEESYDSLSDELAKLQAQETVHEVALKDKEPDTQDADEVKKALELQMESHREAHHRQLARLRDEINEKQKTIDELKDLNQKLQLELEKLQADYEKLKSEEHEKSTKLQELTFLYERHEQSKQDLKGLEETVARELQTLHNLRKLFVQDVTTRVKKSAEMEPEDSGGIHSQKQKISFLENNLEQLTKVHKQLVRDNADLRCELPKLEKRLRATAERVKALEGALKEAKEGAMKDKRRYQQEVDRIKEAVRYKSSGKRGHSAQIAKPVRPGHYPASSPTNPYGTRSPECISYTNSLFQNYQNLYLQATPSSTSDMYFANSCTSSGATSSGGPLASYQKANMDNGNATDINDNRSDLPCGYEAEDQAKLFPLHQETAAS
Briefly: Inhibition of nKHC.

The target of series [5] is T4, Cytochrome P450 3A4 (Homo sapiens, UniProt P08684). Briefly: Inhibition of CYP3A4 coincubated with compound. Type of series: ADME.
T4 sequence (P08684 whole entry): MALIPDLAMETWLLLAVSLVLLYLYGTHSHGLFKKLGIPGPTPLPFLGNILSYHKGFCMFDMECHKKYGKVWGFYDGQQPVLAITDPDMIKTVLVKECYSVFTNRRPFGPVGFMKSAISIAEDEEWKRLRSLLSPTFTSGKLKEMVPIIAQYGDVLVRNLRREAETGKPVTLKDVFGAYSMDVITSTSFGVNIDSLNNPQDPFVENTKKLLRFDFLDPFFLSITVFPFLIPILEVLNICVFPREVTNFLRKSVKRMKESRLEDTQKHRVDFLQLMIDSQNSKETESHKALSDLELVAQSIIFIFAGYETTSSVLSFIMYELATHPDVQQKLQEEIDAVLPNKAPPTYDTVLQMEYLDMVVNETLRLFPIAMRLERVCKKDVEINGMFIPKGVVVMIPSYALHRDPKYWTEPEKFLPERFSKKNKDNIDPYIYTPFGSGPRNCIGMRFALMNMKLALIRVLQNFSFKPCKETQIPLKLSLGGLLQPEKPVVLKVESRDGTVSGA
Series [6] concerns the target T1, Cytochrome P450 2D6. Briefly: Inhibition of CYP2D6 preincubated with compound. In kind it is ADME.
Series [7] deals with T4, Cytochrome P450 3A4. Briefly: Inhibition of CYP3A4 preincubated with compound. In kind it is ADME.
Series [8] has as its target T2, Cytochrome P450 2C9. Briefly: Inhibition of CYP2C9 preincubated with compound. Type of series: ADME.
The target of series [9] is T5, Kinesin-like protein KIF3B (Homo sapiens, UniProt O15066).
T5 sequence (O15066 whole entry): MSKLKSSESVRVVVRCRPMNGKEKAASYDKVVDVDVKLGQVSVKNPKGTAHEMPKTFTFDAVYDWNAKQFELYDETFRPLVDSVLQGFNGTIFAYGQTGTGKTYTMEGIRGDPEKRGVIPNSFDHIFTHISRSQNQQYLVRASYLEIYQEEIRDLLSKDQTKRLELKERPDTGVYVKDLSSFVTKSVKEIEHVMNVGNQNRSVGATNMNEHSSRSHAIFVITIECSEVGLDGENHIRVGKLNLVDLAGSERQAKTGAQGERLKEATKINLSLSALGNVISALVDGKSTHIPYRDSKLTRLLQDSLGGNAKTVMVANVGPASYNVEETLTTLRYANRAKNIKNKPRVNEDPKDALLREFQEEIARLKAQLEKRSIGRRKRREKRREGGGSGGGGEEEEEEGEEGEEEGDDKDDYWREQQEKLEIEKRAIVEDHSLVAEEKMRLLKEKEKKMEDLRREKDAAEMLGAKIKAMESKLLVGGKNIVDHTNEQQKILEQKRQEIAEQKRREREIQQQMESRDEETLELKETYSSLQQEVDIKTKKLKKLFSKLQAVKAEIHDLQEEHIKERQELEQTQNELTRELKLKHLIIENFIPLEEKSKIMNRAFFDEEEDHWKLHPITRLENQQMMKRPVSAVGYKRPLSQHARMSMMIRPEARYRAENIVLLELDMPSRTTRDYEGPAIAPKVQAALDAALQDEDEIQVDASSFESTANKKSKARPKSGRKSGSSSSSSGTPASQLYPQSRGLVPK
Briefly: Inhibition of Kif3B.

Series [10] has as its target T6, Kinesin-like protein KIF11 (Homo sapiens, UniProt P52732).
T6 sequence (P52732 whole entry): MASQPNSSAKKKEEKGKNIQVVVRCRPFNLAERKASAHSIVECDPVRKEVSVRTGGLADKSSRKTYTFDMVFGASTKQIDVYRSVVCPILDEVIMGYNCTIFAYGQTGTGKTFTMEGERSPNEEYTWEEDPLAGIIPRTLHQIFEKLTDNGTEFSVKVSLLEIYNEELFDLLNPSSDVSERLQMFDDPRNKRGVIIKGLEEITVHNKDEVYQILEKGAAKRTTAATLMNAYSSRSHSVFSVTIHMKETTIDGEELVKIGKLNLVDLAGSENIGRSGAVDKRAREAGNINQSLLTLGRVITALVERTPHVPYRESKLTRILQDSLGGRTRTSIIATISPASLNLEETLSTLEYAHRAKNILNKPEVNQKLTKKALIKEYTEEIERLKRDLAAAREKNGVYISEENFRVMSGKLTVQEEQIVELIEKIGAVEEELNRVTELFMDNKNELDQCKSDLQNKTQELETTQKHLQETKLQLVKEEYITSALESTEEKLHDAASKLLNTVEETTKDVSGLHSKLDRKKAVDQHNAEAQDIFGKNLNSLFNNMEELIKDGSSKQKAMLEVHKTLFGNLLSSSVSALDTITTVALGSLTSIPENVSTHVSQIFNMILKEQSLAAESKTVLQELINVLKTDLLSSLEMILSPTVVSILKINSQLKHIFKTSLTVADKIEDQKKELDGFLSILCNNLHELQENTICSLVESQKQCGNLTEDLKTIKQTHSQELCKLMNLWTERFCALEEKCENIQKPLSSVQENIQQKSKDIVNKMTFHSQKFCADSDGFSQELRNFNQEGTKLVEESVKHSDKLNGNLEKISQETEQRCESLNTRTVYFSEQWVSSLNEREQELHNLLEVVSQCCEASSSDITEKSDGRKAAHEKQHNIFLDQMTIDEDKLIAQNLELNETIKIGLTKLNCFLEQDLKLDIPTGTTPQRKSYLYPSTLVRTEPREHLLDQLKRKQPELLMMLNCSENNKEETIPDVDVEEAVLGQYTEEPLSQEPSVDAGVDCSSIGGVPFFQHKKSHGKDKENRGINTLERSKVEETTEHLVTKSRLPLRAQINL
Briefly: Inhibition of human kinesin spindle protein by endpoint assay.

Series [11] relates to A2780. Briefly: Antiproliferative activity against human A2780 cells assessed s occurrence of monostral phenotype at 25 uM after 48 hrs by Almar blue assay. Type of series: functional, cell-based.
Series [12] relates to A2780. Briefly: Antiproliferative activity against human A2780 cells after 48 hrs by Almar blue assay. In kind it is functional, cell-based. As to conditions: A2780, 48 h.
For series [13], the target named is Kinesin-like protein KIF11 (Homo sapiens) (UniProt P52732). Briefly: Selectivity for human KSP over HSET.

T2 sequence (P11712 whole entry, canonical isoform): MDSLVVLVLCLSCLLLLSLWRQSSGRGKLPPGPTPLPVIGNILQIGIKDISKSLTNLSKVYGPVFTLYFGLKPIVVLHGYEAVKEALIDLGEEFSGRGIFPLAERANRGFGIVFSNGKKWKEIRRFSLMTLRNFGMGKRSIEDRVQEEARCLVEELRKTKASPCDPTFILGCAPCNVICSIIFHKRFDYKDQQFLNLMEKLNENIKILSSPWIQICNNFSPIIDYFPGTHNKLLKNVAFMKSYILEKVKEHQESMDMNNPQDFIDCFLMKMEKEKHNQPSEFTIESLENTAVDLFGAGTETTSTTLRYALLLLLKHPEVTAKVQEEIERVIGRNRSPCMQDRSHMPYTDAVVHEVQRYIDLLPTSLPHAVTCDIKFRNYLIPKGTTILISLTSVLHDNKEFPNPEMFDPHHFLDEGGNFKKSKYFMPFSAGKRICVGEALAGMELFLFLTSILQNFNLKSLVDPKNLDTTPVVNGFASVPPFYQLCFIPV

A word on the AUC: it is the area under the concentration-time curve, a measure of exposure. A high value points to more exposure. For orientation: pIC50 means the IC50 on a negative log10 scale, so that one unit is a factor of ten. As to `COc1ccc(Nc2nc3cc(C(N)=O)ccc3n2Cc2ccccc2C(F)(F)F)cc1`, the AUC in the series with Rattus norvegicus is 0.6 µM·h. Besides, the pIC50 was < 4.52 on Cytochrome P450 2D6 [1]; 5.10 on Cytochrome P450 2C9 [3]; < 4.30 in [4]; < 4.52 on Cytochrome P450 3A4 [5]; < 4.82 on Cytochrome P450 2D6 [6]; < 4.82 on Cytochrome P450 3A4 [7]. The negative logarithm of the IC50 (pIC50) at Cytochrome P450 2C9 [8] was < 5.40; in series [9], < 4.30; in series [10], 5.60; in the series on A2780 [12], 4.72. In addition, the Papp in series [2] was determined as 67 ×10⁻⁶ cm/s. In the series on A2780 [11], the result was Active.

In the case of `NC(=O)c1ccc2c(c1)nc(Nc1ccc(S(N)(=O)=O)cc1)n2Cc1csc2ccccc12`, the values for the negative logarithm of the IC50 (pIC50) in series [4], in [9] and in series [10] were < 4.30, < 4.30 and 5.68, respectively. Moreover, in [13], the fold change (FC) is > 24.

Regarding `CS(=O)(=O)c1ccc(Nc2nc3cc(C(=O)O)ccc3n2Cc2ccccc2C(F)(F)F)cc1`, the values for the pIC50 in [4], in series [9] and in series [10] were < 4.30, < 4.30 and 5.16, respectively. In addition, the fold change (FC) in [13] worked out at 7.

Turning to `CSc1ccc(Nc2nc3cc(C(N)=O)ccc3n2Cc2ccccc2C(F)(F)F)cc1`, in the series with Rattus norvegicus, the AUC stood at 0.15 µM·h. In addition, the negative logarithm of the IC50 (pIC50) was < 4.52 at Cytochrome P450 2D6 [1]; 4.85 on Cytochrome P450 2C9 [3]; < 4.30 in series [4]; < 4.52 at Cytochrome P450 3A4 [5]; < 4.82 on Cytochrome P450 2D6 [6]; > 4.82 at Cytochrome P450 3A4 [7]. Also, the negative logarithm of the IC50 (pIC50) at Cytochrome P450 2C9 [8] is < 5.15; in [9] it was < 4.30; in series [10] it was 6.28; in the series on A2780 [12] it was 4.80. Besides, the Papp in series [2] is 53 ×10⁻⁶ cm/s. This compound came in with a fold change (FC) in series [13] of 8. Also, in the series with A2780 [11], the result was Active.

As to `COc1ccc(Nc2nc3cc(C(N)=O)ccc3n2Cc2ccccc2C(F)(F)F)cc1F`, the pIC50 is < 4.30 in [4], < 4.30 in series [9] and 5.89 in series [10]. In series [13], this compound came in with a fold change (FC) of 11.

For `CS(=O)(=O)c1ccc(Nc2nc3cc(C(N)=O)ccc3n2Cc2ccccc2C(F)(F)F)cc1`, the AUC in the series on Rattus norvegicus was found to be 0 µM·h. For the same compound, the pIC50 at Cytochrome P450 2D6 [1] was < 4.52; on Cytochrome P450 2C9 [3], 4.82; in [4], < 4.30; on Cytochrome P450 3A4 [5], < 4.52; at Cytochrome P450 2D6 [6], < 4.82; at Cytochrome P450 3A4 [7] it was < 4.70. The figures for the pIC50 (on Cytochrome P450 2C9 [8]; in series [9]; in series [10]) were < 5.10, < 4.30 and 5.32, respectively. Besides, in [2], the Papp stood at 1.8 ×10⁻⁶ cm/s.

As for `NC(=O)c1ccc2c(c1)nc(Nc1ccc(S(N)(=O)=O)cc1)n2Cc1ccccc1C(F)(F)F`, the pIC50 in series [4] was < 4.30; in series [9] it was < 4.30; in [10] it was 5.13. Also, the fold change (FC) in series [13] is 5.
